Laboratory results published in patent publication US20140234868A1, “USE FOR GLYCOLIPOPROTEIN GINTONIN, ISOLATED AND IDENTIFIED FROM GINSENG, AS A NATURAL MEDICAL-PLANT DERIVED LIGAND” (KONKUK UNIVERSITY INDUSTRIAL COOPERATION CORP., priority 2011, published 2014).

Experiments:
[1] = test system: NMDA receptors (NR1 and NR2); test: NMDA receptor activity in Xenopus oocytes, two-electrode voltage clamp; format: cell-based; details: Kil6425 10 μM, 2-APB 100 μM, BAPTA 100 μM 3 h; for effect on gintonin-induced NMDA receptor activation: gintonin 1 μg/ml, U73122, U73343 1 μM, genistein 10 μM, PP2, PP3 30 μM
Procedure: cDNAs of NMDA receptor subunits (NR1 and NR2) were employed (Zheng et al., J Neurosci. 17, 8676-8686, 1997). cDNAs (100 ng/40 nl) corresponding to respective NMDA receptor subunits (NR1 and NR2) were injected into animal or vegetal poles of oocytes by use of a […] (VWR Scientific, USA) and incubated for 4-5 days after injection (Zheng et al., J Neurosci. 17, 8676-8686, 1997).
(§1) Xenopus laevis frogs were obtained from Xenopus I (Ann Arbor, Mich.). Their care and handling were in accordance with the highest standards of institutional guidelines. To isolate oocytes, the frogs were operated on under anesthesia with an aerated solution of 3-aminobenzoic acid ethyl ester. Oocytes were separated by treatment with collagenase and agitation for two hours in a Ca^2+-free medium containing 82.5 mM NaCl, 2 mM KCl, 1 mM MgCl2, 5 mM HEPES, 2.5 mM sodium pyruvate, 100 units/ml penicillin and 100 μg/ml streptomycin.
(§2) Stage V-VI oocytes were collected and stored in ND96 (96 mM NaCl, 2 mM KCl, 1 mM MgCl2, 1.8 mM CaCl2, and 5 mM HEPES, pH 7.4) supplemented with 50 μg/ml gentamicin. This oocyte containing solution was maintained at 18° C. with continuous gentle shaking while the ND96 medium was changed to a fresh one every day.
Two-electrode voltage-clamp recordings were obtained from individual oocytes placed in a small Plexiglas net chamber (5 ml). Electrophysiological experiments were performed using microelectrodes filled with 3 M KCl (resistance of 0.2-0.7 MΩ) and an Oocyte Clamp amplifier (OC-725C; Warner Instrument, Hamden, Conn.). For physiological recordings of NMDA receptor activity, oocytes were first perfused with Mg^2+-free ND96 (mM: 96 NaOH, 2 KOH, 0.3 CaCl2, 5 HEPES pH 7.6 with methanesulfonic acid). Then, the oocytes were clamped at −60 mV holding potential, followed by recoding NMDA currents (induced by administering […]) (Zheng et al., J Neurosci. 17, 8676-8686, 1997; Chang and Kuo, J Neurosci. 28, 1546-1556, 2008).

LPA3 receptor = molecular target: T1, LPA3 receptor (Homo sapiens, UniProt Q9UBY5); test: Intracellular free Ca2+ (Fura-2AM) in LPA3-expressing B103 cells; format: cell-based; details: LPA3-expressing B103 cells; for increase of intracellular calcium level: ginsenosides each 10 μM
T1 construct: host or cells: B103 rat neuroblastoma cells
T1 sequence (Q9UBY5 1-353): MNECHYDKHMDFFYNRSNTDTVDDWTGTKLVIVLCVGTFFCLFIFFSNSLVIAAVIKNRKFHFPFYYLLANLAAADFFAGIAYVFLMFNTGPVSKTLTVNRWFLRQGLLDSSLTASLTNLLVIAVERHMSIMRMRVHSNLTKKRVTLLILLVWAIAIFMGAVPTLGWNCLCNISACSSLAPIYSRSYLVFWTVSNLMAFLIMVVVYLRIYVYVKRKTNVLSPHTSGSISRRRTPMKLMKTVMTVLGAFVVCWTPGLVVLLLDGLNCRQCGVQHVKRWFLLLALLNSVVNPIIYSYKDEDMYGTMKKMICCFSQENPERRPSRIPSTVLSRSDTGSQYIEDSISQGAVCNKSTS
From the text: (§3) LPA family receptors are endogenous to cells of most organs. B103 rat neuroblastoma cells, known as LPA receptor-null cells (Valentine et al., Biochim Biophys Acta 1780. 597-605) were transiently transfected with a plasmid (vector) carrying one of genes coding for LPA1(edg-2), LPA2(edg-4), LPA3(edg-7), LPA4, LPA5 and LPA6 receptors or a plasmid carrying none of them (empty vector). Two or three days after transfection, the cells are suspended, and made permeable. Then, the permeable cells are treated with Fura-2AM, a fluorescent dye binding to calcium, and then with gintonin, followed by spectrofluorephotometry to examine whether gintonin induces an increase in intracellular free Ca^2+ level.
(§4) (1) preparing large quantities of plasmids carrying respective LPA family receptor genes and an empty plasmid carrying none of them through amplification and purification (maxi-preparation); (2) verifying the expression of LPA receptors wherein B103 cells are transfected with haematoglutin (HA)-tagged LPA receptors, and then subjected to Western blotting analysis using an anti-HA primary antibody and a horseradish peroxidase (HRP)-conjugated secondary antibody to develop a color; (3) verifying the expression of LPA receptors wherein B1-3 cells are transfected with haematoglutin (HA)-tagged LPA receptors, and then subjected to confocal laser microscopy using an anti-HA antibody and a fluorescence dye Cy3-conjugated secondary antibody; (4) transfecting the empty plasmid and each of the plasmids carrying LPA family receptor genes into B103 cells; (5) treating the transfected B103 cells with trypsin (0.05% trypsin with EDTA, w/v) 2-3 days post-transfection, to give a cell suspension; (6) culturing the suspended B103 cells with Fura-2AM (2.5 μM); and (7) treating the suspended B103 cells with gintonin and quantifying a change in intracellular free Ca^2+ level in a cuvette by spectrofluorephotometry using Fura-2AM.
(§5) Human LPA (lysophosphatidic acid) receptor subtypes, orphan GPCRs (G protein coupled receptors) and plasmids carrying GPCRs were purchased from Missouri S&T resource Center (www.cDNA.org).
(§6) The transient transfection of LPA receptor subtypes was carried out with the aid of Lipofectamine 2000 of Invitrogen. A plasmid (10.8 μg) carrying each LPA receptor (LPA1, LPA2, LPA3, LPA4, LPA5, and LPA6) was transfected into B103 cells grown in 10-cm dishes, and incubated for 2 days prior for use in experiments.
In this Example, gintonin, or ginsenoside Rb1 or Rg1 was examined for its ability to induce a transient increase of [Ca^2+]i in Fura-2AM-loaded B103 cells which were transfected with LPA receptors and in Fura-2AM-loaded B103 cells which were not transfected with LPA receptors. To this end, B103 cells (2˜4×10^6/ml) pre-treated with Fura-2AM were suspended in a 1.5 mM Ca^2+-containing buffer or Ca^2+-free buffer, and incubated 37° C. for 30 min, followed by analyzing intracellular calcium levels in the B103 cells in the presence of gintonin or ginsenosides.
Briefly, B103 cells (1˜2×10^6/ml) were mixed with 2.5 μM Fura 2-AM in a Ca^2+ buffer (pH 7.4) containing NaCl 120 mM, KCl 5 mM, MgCl2 1 mM, CaCl2 1.5 mM, glucose 10 mM, and HEPES 25 mM, and a Ca^2+ free buffer (pH 7.4) containing NaCl 120 mM, KCl 5 mM, MgCl2 1 mM, EGTA 0.2 mM, glucose 10 mM, and HEPES 25 mM at 37° C. for 30 min in water bath with shaking according to the Jørgensen method, and washed three times with Ca^2+ buffer or Ca^2+ free buffer to remove excess Fura-2AM.
[Ca^2+]i was estimated in Fura 2AM-loaded cells in suspension using an RF-5300PC intracellular ion measurement system (Shimadzu Corporation, Japan).
Briefly, Fura 2-AM loaded cells were diluted with an experimental medium to a final density of 2˜4×10^6 cells/mL, and transferred to polystyrene cuvettes (Elkay Ultra-VU). The cells were stirred using Teflon-coated magnets, and the cuvette housing was thermostatically controlled at 37° C. The excitation wavelengths were alternated between 340 and 380 nm under computer control. […]

mice = test: Busulfan-caused diarrhea and mucositis in mice; format: in vivo, mouse; details: busulfan 40 mg/kg i.p.; for Diarrhea (cases / mice) / Mucositis (cases / mice): gintonin 100 mg/kg oral 3 days before, observed 10 days
Procedure: In this Example, an examination was made of the inhibitory activity of gintonin against chemotherapy-induced diarrhea and mucositis. For this, gintonin-treated mice were administered with busulfan, and observed for diarrhea and mucostitis.
Briefly, mice were orally administered at a dose of 100 mg/kg with gintonin 3 days before intraperitoneal injection with busulfan (40 mg/kg). For the control, physiological saline was used, instead of gintonin.

LPA2 receptor = LPA2 receptor (Homo sapiens, UniProt Q9HBW0); test: Intracellular free Ca2+ (Fura-2AM) in LPA2-expressing B103 cells; format: cell-based; set-up: host or cells: B103 rat neuroblastoma cells; details: LPA2-expressing B103 cells
From the text: as §3, §4, §5, §6
In this Example, gintonin, or ginsenoside Rb1 or Rg1 was examined for its ability to induce a transient increase of [Ca^2+]i in Fura-2AM-loaded B103 cells which were transfected with LPA receptors and in Fura-2AM-loaded B103 cells which were not transfected with LPA receptors. […]

endogenous CaCC = test: Endogenous Ca2+-activated channel (CaCC) activation in Xenopus oocytes; format: cell-based, Xenopus laevis; details: Kil6425 10 μM; U73122 1 μM; 2-APB 100 μM; BAPTA 100 μM 3 h
BKCaK+ channels = test: BKCa K+ channel activity in Xenopus oocytes, two-electrode voltage clamp; format: cell-based; details: 2-APB 100 μM, BAPTA-AM, PMA 1 μM; for effect on gintonin-induced BKCaK+ channel activation: Kil6425 10 μM, U73122, U73343 1 μM
Procedure: as §1
as §2, with “changed with” for “changed to”
Two-electrode voltage-clamp recordings were obtained from individual oocytes placed in a small Plexiglas net chamber (5 ml). Electrophysiological experiments were performed using microelectrodes filled with 3 M KCl (resistance of 0.2-0.7 MΩ) and an Oocyte Clamp amplifier (OC-725C; Warner Instrument, CT, USA) to record BKc K^+ channel activity at room temperature (Choi et al., Mol Cells 31, 133-140, 2011). For physiological recordings of BKCaK^+ channel activity, oocytes were first perfused with a Cl^−- and Ca^2+-free solution (mM: 96 NaOH, 2 KOH, 8 Mg-gluconate, 5 HEPES, 5 EGTA, pH 7.4 with methanesulfonic acid) supplemented with 500 μM anthracene-9-carboxylic acid, a Cl^− channel blocker, to block endogenous Cl-channels (Lu et al., J. Biol. Chem. 265, 16190-16194.1990). Then, the oocytes were clamped at −80 mV holding potential, followed by step depolarization from the holding potential to +40 mV at regular intervals of […] for 400 ms to record outward currents.

Chain of LPA2 receptor (Q9HBW0 whole entry): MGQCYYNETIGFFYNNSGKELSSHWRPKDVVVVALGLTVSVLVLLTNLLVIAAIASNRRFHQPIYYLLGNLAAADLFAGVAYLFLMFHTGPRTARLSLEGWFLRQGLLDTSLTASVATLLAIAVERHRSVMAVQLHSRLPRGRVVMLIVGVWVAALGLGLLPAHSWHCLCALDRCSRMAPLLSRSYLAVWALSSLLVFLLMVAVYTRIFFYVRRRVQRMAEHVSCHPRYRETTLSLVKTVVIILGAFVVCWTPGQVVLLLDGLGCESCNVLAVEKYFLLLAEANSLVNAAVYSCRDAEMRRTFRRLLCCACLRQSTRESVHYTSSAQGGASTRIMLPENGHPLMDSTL

Molecule: Nc1ncnc2c1cnn2-c1ccccc1 [PP3]
- effect on gintonin-induced NMDA receptor activation [1]: did not show inhibitory activity

Molecule: pertussis toxin [PTX]
- lowering of gintonin-induced increase of intracellular calcium level (LPA3 receptor; PTX 200 μg/ml, 16 hrs pretreatment, vs cells not treated with PTX): 25%

Molecule: CS(=O)(=O)OCCCCOS(C)(=O)=O [Busulfan, busulfan, reference compound]
- diarrhea morbidity rate (mice; gintonin 100 mg/kg oral): 53.3%
- perianal mucositis morbidity (mice; gintonin 100 mg/kg oral): 46.7%
- Diarrhea (cases / mice) (mice): 8/15
- Mucositis (cases / mice) (mice): 7/15
- Mucositis (cases / mice) (mice; listed as bufulfan): 7
- Diarrhea (cases / mice) (mice; listed as busulfan): 8

Molecule: CC(C)(C)n1nc(-c2ccc(Cl)cc2)c2c(N)ncnc21 [PP2]
- effect on gintonin-induced NMDA receptor activation [1]: blocked the action of gintonin

Molecule: O=c1c(-c2ccc(O)cc2)coc2cc(O)cc(O)c12 [Genistein]
- effect on gintonin-induced NMDA receptor activation [1]: inhibit gintonin-induced NMDA receptor activation

Molecule: CC(C)=CCC[C@](C)(O[C@@H]1O[C@H](CO)[C@@H](O)[C@H](O)[C@H]1O)[C@H]1CC[C@]2(C)[C@@H]1[C@H](O)C[C@@H]1[C@@]3(C)CC[C@H](O)C(C)(C)[C@@H]3[C@@H](O[C@@H]3O[C@H](CO)[C@@H](O)[C@H](O)[C@H]3O)C[C@]12C [Rg1, ginsenoside Rg1]
- increase of intracellular calcium level (LPA3 receptor): no increased intracellular calcium levels were detected

Molecule: CC(C)=CCC[C@](C)(O)[C@H]1CC[C@]2(C)[C@@H]1[C@H](O)C[C@@H]1[C@@]3(C)CC[C@H](O[C@@H]4O[C@H](CO)[C@@H](O)[C@H](O)[C@H]4O[C@@H]4O[C@H](CO)[C@@H](O)[C@H](O)[C@H]4O)C(C)(C)[C@@H]3CC[C@]12C [Rg3, ginsenoside Rg3]
- increase of intracellular calcium level (LPA3 receptor): no increased intracellular calcium levels were detected

Molecule: NCCOB(c1ccccc1)c1ccccc1 [2-APB]
- effect on gintonin-induced intracellular calcium increase (LPA2 receptor): blocked
- effect on gintonin-induced CaCC activation (endogenous CaCC): suppressed gintonin-induced CaCC activation
- effect on gintonin-induced BKCaK+ channel activation (BKCaK+ channels): blocked gintonin-induced BKCaK^+ channel activation
- effect on ginsenoside Rg3-induced BKCaK+ channel activity (BKCaK+ channels; U73122 1 μM): not blocked
- effect on NMDA-induced inward current ([1]; U73122 1 μM): did not block NMDA-induced inward current
- effect on gintonin-induced NMDA receptor activation [1]: blocked gintonin-induced NMDA receptor activation

Molecule: COc1ccc2c(c1)CC[C@@H]1[C@@H]2CC[C@]2(C)[C@@H](NCCCCCCN3C(=O)CCC3=O)CC[C@@H]12 [U73343]
- effect on gintonin-induced BKCaK+ channel activation (BKCaK+ channels): did not block gintonin-induced BKCaK^+ channel activation
- effect on gintonin-induced NMDA receptor activation [1]: did not block gintonin-induced NMDA receptor activation

Molecule: CC(C)=CCC[C@](C)(O[C@@H]1O[C@H](CO[C@@H]2O[C@H](CO)[C@@H](O)[C@H](O)[C@H]2O)[C@@H](O)[C@H](O)[C@H]1O)[C@H]1CC[C@]2(C)[C@@H]1[C@H](O)C[C@@H]1[C@@]3(C)CC[C@H](O[C@@H]4O[C@H](CO)[C@@H](O)[C@H](O)[C@H]4O[C@@H]4O[C@H](CO)[C@@H](O)[C@H](O)[C@H]4O)C(C)(C)[C@@H]3CC[C@]12C [Rb1, ginsenoside Rb1]
- increase of intracellular calcium level (LPA3 receptor): no increased intracellular calcium levels were detected
